{"source": "patent US11246929B2", "about": "“Combination of a protein kinase inhibitor and an additional chemotherapeutic agent” (Merck Patent GmbH, priority 2016, dated 2022)", "experiment_in_all_cases": "SRB growth inhibition, 93 cell lines panel", "format_in_all_cases": "cell-based", "key": {"[1]": {"system": "IGROV1", "conditions": "Homo sapiens, IGROV-1; IGROV1, ovary; read-out: GI50 of etoposide (±Compound 1)", "procedure": "(§1) 90 μl of cells, after a 48-hour pre-growth period, were treated by mixing with 10 μl of the compound-containing media (resulting in a final DMSO concentration of 0.1%).\n(§2) This is the drug concentration causing a 50% reduction compared to the net protein increase in control cells during the drug incubation period. In other words, G150 is IC50 corrected for time zero. […] TGI was calculated from Ti=Tz. […] It was calculated as 100×[(Ti−Tz)/Tz]=−50."}, "[2]": {"system": "BT20", "conditions": "Homo sapiens, BT-20; BT20, breast; read-out: GI50 of etoposide (±Compound 1)", "procedure": "as §1, §2"}, "[3]": {"system": "NCIH82", "conditions": "Homo sapiens, NCI-H82; NCIH82, lung; read-out: GI50 of etoposide (±Compound 1)", "procedure": "as §1, §2"}, "[4]": {"system": "HEK293", "conditions": "Homo sapiens; HEK293, kidney; read-out: GI50 of etoposide (±Compound 1)", "procedure": "as §1, §2"}, "[5]": {"system": "K-562", "conditions": "Homo sapiens, K562; K-562, hematological; read-out: GI50 of etoposide (±Compound 1)", "procedure": "as §1, §2"}, "[6]": {"system": "PANC1005", "conditions": "Homo sapiens; PANC1005, pancreas; read-out: GI50 of etoposide (±Compound 1)", "procedure": "as §1, §2"}, "[7]": {"system": "A431", "conditions": "Homo sapiens, A-431; A431, skin; read-out: GI50 of etoposide (±Compound 1)", "procedure": "as §1, §2"}, "[8]": {"system": "SAOS2", "conditions": "Homo sapiens, SAOS-2; SAOS2, bone; read-out: GI50 of etoposide (±Compound 1)", "procedure": "as §1, §2"}, "[9]": {"system": "SKLMS1", "conditions": "Homo sapiens, SK-LMS-1; SKLMS1, uterus; read-out: GI50 of etoposide (±Compound 1)", "procedure": "as §1, §2"}, "[10]": {"system": "IMR90", "conditions": "Homo sapiens, IMR-90; IMR90, lung; read-out: GI50 of etoposide (±Compound 1)", "procedure": "as §1, §2"}, "[11]": {"system": "GRANTA-519", "conditions": "Homo sapiens; GRANTA-519, hematological; read-out: GI50 of etoposide (±Compound 1)", "procedure": "as §1, §2"}, "[12]": {"system": "15M15C3", "conditions": "15M15C3, bladder; read-out: GI50 of etoposide (±Compound 1)", "procedure": "as §1, §2"}, "[13]": {"system": "ACHN", "conditions": "Homo sapiens, kidney, read-out: GI50 of etoposide (±Compound 1)", "procedure": "as §1, §2"}, "[14]": {"system": "SU-DHL-6", "conditions": "Homo sapiens; SU-DHL-6, hematological; read-out: GI50 of etoposide (±Compound 1)", "procedure": "as §1, §2"}, "[15]": {"system": "COLO678", "conditions": "Homo sapiens, COLO-678; COLO678, colon; read-out: GI50 of etoposide (±Compound 1)", "procedure": "as §1, §2"}, "[16]": {"system": "A673", "conditions": "Homo sapiens; A673, muscle; read-out: GI50 of etoposide (±Compound 1)", "procedure": "as §1, §2"}, "[17]": {"system": "SKOV3", "conditions": "Homo sapiens, SK-OV-3; SKOV3, ovary; read-out: GI50 of etoposide (±Compound 1)", "procedure": "as §1, §2"}, "[18]": {"system": "MHHES1", "conditions": "Homo sapiens, MHH-ES-1; MHHES1, bone; read-out: GI50 of etoposide (±Compound 1)", "procedure": "as §1, §2"}, "[19]": {"system": "786O", "conditions": "Homo sapiens, 786-0, kidney, read-out: GI50 of etoposide (±Compound 1)", "procedure": "as §1, §2"}, "[20]": {"system": "JAR", "conditions": "placenta, read-out: GI50 of etoposide (±Compound 1)", "procedure": "as §1, §2"}, "[21]": {"system": "RAMOS", "conditions": "Homo sapiens, hematological, read-out: GI50 of etoposide (±Compound 1)", "procedure": "as §1, §2"}, "[22]": {"system": "NCIH358M", "conditions": "NCI-H358M, lung, read-out: GI50 of etoposide (±Compound 1)", "procedure": "as §1, §2"}, "[23]": {"system": "5637", "conditions": "5637, bladder; read-out: GI50 of etoposide (±Compound 1)", "procedure": "as §1, §2"}, "[24]": {"system": "HS578T", "conditions": "Homo sapiens, Hs-578T, breast, read-out: GI50 of etoposide (±Compound 1)", "procedure": "as §1, §2"}, "[25]": {"system": "SKBR3", "conditions": "Homo sapiens, SK-BR-3; SKBR3, breast; read-out: GI50 of etoposide (±Compound 1)", "procedure": "as §1, §2"}, "[26]": {"system": "A2780", "conditions": "Homo sapiens; A2780, ovary; read-out: GI50 of etoposide (±Compound 1)", "procedure": "as §1, §2"}, "[27]": {"system": "MIAPACA2", "conditions": "Homo sapiens, MIA PaCa-2; MIAPACA2, pancreas; read-out: GI50 of etoposide (±Compound 1)", "procedure": "as §1, §2"}, "[28]": {"system": "NCIH460", "conditions": "Homo sapiens, NCI-H460; NCIH460, lung; read-out: GI50 of etoposide (±Compound 1)", "procedure": "as §1, §2"}, "[29]": {"system": "HS729", "conditions": "HS729, muscle; read-out: GI50 of etoposide (±Compound 1)", "procedure": "as §1, §2"}, "[30]": {"system": "SW620", "conditions": "Homo sapiens, SW-620; SW620, colon; read-out: GI50 of etoposide (±Compound 1)", "procedure": "as §1, §2"}, "[31]": {"system": "BXPC3", "conditions": "Homo sapiens, BXPC-3; BXPC3, pancreas; read-out: GI50 of etoposide (±Compound 1)", "procedure": "as §1, §2"}}}
{"smiles": "COc1cc([C@@H]2c3cc4c(cc3[C@@H](O[C@@H]3O[C@@H]5CO[C@@H](C)O[C@H]5[C@H](O)[C@H]3O)[C@H]3COC(=O)[C@H]23)OCO4)cc(OC)c1O", "note": "[Etoposide]", "values": [{"measurement": "GI50", "setting": "[1]", "value": 1060, "unit": "nM"}, {"measurement": "GI50", "setting": "[2]", "value": 73, "unit": "nM"}, {"measurement": "GI50", "setting": "[3]", "value": 1150, "unit": "nM"}, {"measurement": "GI50", "setting": "[4]", "value": 190, "unit": "nM"}, {"measurement": "GI50", "setting": "[5]", "value": 277, "unit": "nM"}, {"measurement": "GI50", "setting": "[6]", "value": 2730, "unit": "nM"}, {"measurement": "GI50", "setting": "[7]", "value": 1520, "unit": "nM"}, {"measurement": "GI50", "setting": "[8]", "value": 1460, "unit": "nM"}, {"measurement": "GI50", "setting": "[9]", "value": 1640, "unit": "nM"}, {"measurement": "GI50", "setting": "[10]", "value": 704, "unit": "nM"}, {"measurement": "GI50", "setting": "[11]", "value": 247, "unit": "nM"}, {"measurement": "GI50", "setting": "[12]", "value": 604, "unit": "nM"}, {"measurement": "GI50", "setting": "[13]", "value": 714, "unit": "nM"}, {"measurement": "GI50", "setting": "[14]", "value": 665, "unit": "nM"}, {"measurement": "GI50", "setting": "[15]", "value": 10800, "unit": "nM"}, {"measurement": "GI50", "setting": "[16]", "value": 1080, "unit": "nM"}, {"measurement": "GI50", "setting": "[17]", "value": 2990, "unit": "nM"}, {"measurement": "GI50", "setting": "[18]", "value": 227, "unit": "nM"}, {"measurement": "GI50", "setting": "[19]", "value": 928, "unit": "nM"}, {"measurement": "GI50", "setting": "[20]", "value": 116, "unit": "nM"}, {"measurement": "GI50", "setting": "[21]", "value": 204, "unit": "nM"}, {"measurement": "GI50", "setting": "[22]", "value": 3330, "unit": "nM"}, {"measurement": "GI50", "setting": "[23]", "value": 685, "unit": "nM"}, {"measurement": "GI50", "setting": "[24]", "value": 874, "unit": "nM"}, {"measurement": "GI50", "setting": "[25]", "value": 432, "unit": "nM"}, {"measurement": "GI50", "setting": "[26]", "value": 62, "unit": "nM"}, {"measurement": "GI50", "setting": "[27]", "value": 689, "unit": "nM"}, {"measurement": "GI50", "setting": "[28]", "value": 167, "unit": "nM"}, {"measurement": "GI50", "setting": "[29]", "value": 730, "unit": "nM"}, {"measurement": "GI50", "setting": "[30]", "value": 302, "unit": "nM"}, {"measurement": "GI50", "setting": "[31]", "value": 7140, "unit": "nM"}]}
